The values that follow come from patent US20210392882A1, “METHODS AND COMPOSITIONS FOR IMPROVED INSECT REPELLENCY” (Board of Trustees of Michigan State University, priority 2020, published 2021).

The test system of this test is mosquito sodium channel (AaNav1-1). In words: Two-electrode voltage clamp of sodium channels expressed in Xenopus oocytes. To be noted: 20 ms step-depolarization before and after exposure; FIG. 4J. The format is cell-based, Aedes aegypti. An excerpt:
FIG. 4A-4J illustrate that pyrethrin-induced repellency is synergized by (E)-β-farnesene via activation of both AaOr31 and sodium channels. […] FIG. 4B graphically illustrates repellency elicited by pyrethrin I (P-I) and pyrethrin II (P-II) at 10^−3 dilution in Orlando (wild-type) and orco^−/− mosquitoes (n=9 cages for Orlando control from 2 batches of mosquitoes; n=10 cages for orco−/− control from 2 batches of mosquitoes, P-I: U=31, n=11 cages for Orlando; and n=12 cages for orco−/− from 3 batches of mosquitoes, P-II: U=15; n=14 cages for Orlando; and n=15 cages for orco−/− from 4 batches of mosquitoes). […] The effect of pyrethrum was measured 10 minutes after its application. Pyrethrum-induced tail currents were recorded during a 100-pulse train of 5 milliseconds step depolarizations from −120 to −10 mV with 5 milliseconds inter-pulse intervals (Du et al. (2013)). The percentage of pyrethrum-modified channels was calculated using the following equation: M=[Itail/(Eh−ENa)]/[INa/(Et−ENa)]×100; where Itail is the maximal tail current amplitude, Eh is the potential to which the membrane is repolarized, ENa is the reversal potential for sodium currents determined from the current-voltage curve, INa is the amplitude of the peak current during depolarization before pyrethrum exposure, and Et is the potential of the step depolarization. […]

Each structure is given as a SMILES string.

With `CC1(C)C2CCC1(C)C(O)C2` (single isomer, unassigned; (-)) [(−)-borneol], the “effect on peak current and channel gating” value is “no effects”.
